Reference: patent EP1031349A1, “Use of substituted 4-biarylbutyric and 5-biarylpentanoic acid derivatives for the treatment of cerebral diseases” (Bayer Aktiengesellschaft, priority 1999, dated 2000)
Where two headings read alike, the source gives them in different places.

Tests used:
Wistar rats = assay: Subdural hematoma (SDH) model in rats, quantification of edema formation; format: in vivo; conditions: rat-SDH- model, dose of 0.3 mg/kg i.v., edema assessed 24 hours after surgery
Protocol: Wistar rats, weighting 200-250 g were used. Anaesthesia was induced with i.p. injection of 1.2 ml Ketavet (120 mg Ketamin) and 0.8 ml Rompun™ (2% Xylancin) per animal. Body temperatures were maintained at 37°C by means of a rectal thermometer and a heating system.
A midline scalp incision was made and the saggital and coronal sutures identified. A burr hole 3 mm in diameter was drilled 2 mm to the left of the saggital suture and 1 mm posterior to the coronal suture. Using an operating microscope, the dura was incised and a blunt, pre-manufactured plastic tip (ca. 6.0 mm long) was carefully inserted 0.8 mm deep into the subdural space. Rapid-curing cyanoacrylate glue (Histoacryl) was used to seal the burr hole and secure the position of the plastic tip. […]
The edema formation was assessed 24 hours after surgery. […] The wet weight of both hemispheres was determined and after drying for 24 hours at 110°C the dry weights were determined. Based on the increase in tissue water content, tissue swelling (i.e., increase in volume) may be calculated employing the following (modified) equation: (ΔDW(%))/(DWε)× 100(%Swelling) [formula] where DW % is the difference in tissue dry weight between the normal and edematous brain, and DW the dry weight (%) of the edematous brain.

MMP-3 = MMP-3 (Homo sapiens, UniProt P08254); assay: Automated MMP profiling assay (P218 quenched fluorescence), MMP-3; format: biochemical
Protocol: Truncated Prostromelysin-257 is expressed in a soluble form in E.coli as described by Marcy et al., Biochemistry, 30, 6476-6483, 1991. Soluble truncated prostromelysin is purified by a modification of the monoclonal antibody affinity chromatography method described by Housley et al., J. Biol. Chem., 268, 4481-87, 1993.
This assay was originally described by Knight et al., FEBS Letters, 296, 263-266, 1992, for a related substrate. The assay is run continuously in a 3.0ml cuvette using a Perkin-Elmer LS 50 B Spectrofluorimeter at 25 ^∞C in a final volume of 2.0 mls. P218 substrate (10mM) in 100% DMSO is diluted to a final concentration of 2.0 micromolar (µM) into assay buffer: 50mM MES, pH 6.5 containing 150mM NaCl, 10mM CaCl2, 0.005% Brij-35, and 1%(v/v) DMSO. Test compounds(10mM) in DMSO are diluted in assay buffer at an initial concentration of 10 to 100 micromolar. These are diluted to a final concentration in the assay from 10 nM to 1 µM depending upon their potency previously determined in primary thiopeptilide assay described above. The reaction is initiated by the addition of recombinant stromelysin (MMP-3) at a final concentration of 1.0 nM. Upon peptide cleavage, the fluorescent MCA group is detected using an excitation wavelength of 328 nanometers and an emission wavelength of 393 nanometers. The assay is linear from 0.2 to 5nM MMP-3 concentration and percent inhibition is calculated as described above for the primary thiopeptilide assay and IC50 values are determined by a linear regression analysis of percent inhibition versus log drug concentration. The peptide sequence of the MCA substrate, hereinafter designated P218, is shown below: [formula]
This assay is run with a protocol analogous to that reported for MMP-3 inhibition using the synthetic peptide P218 and each of the three enzymes and measuring quenched fluorescence. This assay can be run with each invention compound with the three enzymes MMP-3, MMP-9 and MMP-2 in parallel as adapted for a 96-well microtitre plate using a Hamilton AT ® workstation.

MMP-2 = molecular target: T1, MMP-2 (Homo sapiens, UniProt P08253); assay: Automated MMP profiling assay (P218 quenched fluorescence), MMP-2; format: biochemical
T1 sequence (P08253 110-660): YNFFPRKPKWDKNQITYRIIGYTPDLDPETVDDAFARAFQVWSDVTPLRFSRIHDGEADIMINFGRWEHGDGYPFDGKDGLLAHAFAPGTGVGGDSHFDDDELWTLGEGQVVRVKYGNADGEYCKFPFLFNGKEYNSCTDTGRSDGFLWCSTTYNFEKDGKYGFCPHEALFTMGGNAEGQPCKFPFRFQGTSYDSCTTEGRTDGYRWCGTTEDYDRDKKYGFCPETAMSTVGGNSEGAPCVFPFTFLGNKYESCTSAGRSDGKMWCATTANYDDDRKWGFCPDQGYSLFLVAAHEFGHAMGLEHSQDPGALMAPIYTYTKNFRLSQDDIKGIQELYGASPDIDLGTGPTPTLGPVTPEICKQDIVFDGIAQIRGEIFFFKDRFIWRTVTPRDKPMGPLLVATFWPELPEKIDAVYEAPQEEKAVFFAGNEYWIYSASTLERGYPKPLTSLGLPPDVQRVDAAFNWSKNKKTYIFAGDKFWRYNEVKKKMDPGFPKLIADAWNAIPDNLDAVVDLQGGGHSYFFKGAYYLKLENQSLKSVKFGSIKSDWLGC

MMP-9 = MMP-9 (Homo sapiens, UniProt P14780); assay: Automated MMP profiling assay (P218 quenched fluorescence), MMP-9; format: biochemical
Protocol: MMP-9 is isolated modifying the previously described procedures of Hibbs et al (J. Biol. Chem., 260, 2493-2500, 1984) and Wilhelm et al (J. Biol. Chem., 264, 17213-17221, 1989). Briefly, polymorphonuclear leukocytes (PMN) preparations are isolated as described above from 3 or more units of freshly drawn whole blood. Cells are resuspended in phosphate buffered saline (PBS) containing 100 ng/ml phorbol myristate acetate (PMA) in the presence of […] di-isopropylfluorophospate (DFP), 1 µg/ml leupeptin and aprotinin, and 1 mg/ml catalase for 1 hr at 37°C. Supernatants are collected by centrifugation (300 x g) and the samples are frozen at-70°C. All chromatographic methods are performed at 4°C. Thawed samples are concentrated 5-fold using an Amicon chamber equipped with a YM-10 membrane. The concentrate is pressure dialyzed against 0.02M Tris-HCl, 0.1 M NaCl, 1 mM CaCl2 , 1 µM ZnCl2, 0.001% Brij-35, 0.02% sodium azide (NaN3), pH 7.5 and applied to DEAE ion exchange chromatography resin which is previously equilibrated with the same buffer at a flow rate of 0.4 ml/min. The column is extensively washed with the same buffer and gelatinase is eluted as 4 ml fractions from the column with 0.02M Tris-HCl, 0.5 M NaCI, 1 mM CaCl2, 1 µM ZnCl2, 0.001% Brij-35, 0.02% NaN3, pH 7.5. Gelatinase containing fractions are observed by gelatin zymography (see below), loaded onto a gelatin agarose affinity resin and washed with the same buffer. […] The protein content associated with material is determined with a micro-BCA assay (Pierce, Rockford, IL), lyophilized and reconstituted to a desired working concentration (100 µg/ml).
This assay was originally described by Knight et al., FEBS Letters, 296, 263-266, 1992, for a related substrate. […] Upon peptide cleavage, the fluorescent MCA group is detected using an excitation wavelength of 328 nanometers and an emission wavelength of 393 nanometers. […]
This assay is run with a protocol analogous to that reported for MMP-3 inhibition using the synthetic peptide P218 and each of the three enzymes and measuring quenched fluorescence. […]

MMP-1 = molecular target: T2, MMP-1 (Homo sapiens, UniProt P03956); assay: Automated MMP profiling assay (P218 quenched fluorescence), MMP-1; format: biochemical
T2 sequence (P03956 100-469): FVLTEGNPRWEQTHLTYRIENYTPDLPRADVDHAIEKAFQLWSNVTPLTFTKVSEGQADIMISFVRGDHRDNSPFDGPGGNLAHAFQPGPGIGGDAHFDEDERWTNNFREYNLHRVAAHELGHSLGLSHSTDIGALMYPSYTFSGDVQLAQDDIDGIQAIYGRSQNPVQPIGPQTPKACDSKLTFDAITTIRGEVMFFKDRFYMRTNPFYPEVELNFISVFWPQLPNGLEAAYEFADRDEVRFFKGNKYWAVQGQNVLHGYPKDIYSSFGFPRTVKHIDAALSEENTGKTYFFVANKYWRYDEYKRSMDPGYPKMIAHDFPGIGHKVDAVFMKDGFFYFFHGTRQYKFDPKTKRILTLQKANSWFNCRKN

Sequence of MMP-9 (P14780 94-707): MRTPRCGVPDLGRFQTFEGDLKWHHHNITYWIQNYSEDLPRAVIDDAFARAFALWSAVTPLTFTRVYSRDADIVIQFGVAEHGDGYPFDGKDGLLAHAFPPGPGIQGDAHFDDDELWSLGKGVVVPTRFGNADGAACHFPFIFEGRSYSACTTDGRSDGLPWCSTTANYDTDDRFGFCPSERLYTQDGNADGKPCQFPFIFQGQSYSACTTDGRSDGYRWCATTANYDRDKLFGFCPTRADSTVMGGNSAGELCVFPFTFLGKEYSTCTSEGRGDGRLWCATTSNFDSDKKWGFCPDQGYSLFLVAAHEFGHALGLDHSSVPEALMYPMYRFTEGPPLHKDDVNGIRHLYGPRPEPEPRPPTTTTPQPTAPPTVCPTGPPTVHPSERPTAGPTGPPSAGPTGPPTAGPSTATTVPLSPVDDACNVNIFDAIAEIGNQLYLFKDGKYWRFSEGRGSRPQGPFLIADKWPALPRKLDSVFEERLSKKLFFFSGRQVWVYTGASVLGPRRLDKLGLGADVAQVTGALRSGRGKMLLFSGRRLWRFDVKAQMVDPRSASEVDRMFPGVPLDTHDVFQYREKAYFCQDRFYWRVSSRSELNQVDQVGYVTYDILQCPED
Sequence of MMP-3 (P08254 100-274 limits assumed): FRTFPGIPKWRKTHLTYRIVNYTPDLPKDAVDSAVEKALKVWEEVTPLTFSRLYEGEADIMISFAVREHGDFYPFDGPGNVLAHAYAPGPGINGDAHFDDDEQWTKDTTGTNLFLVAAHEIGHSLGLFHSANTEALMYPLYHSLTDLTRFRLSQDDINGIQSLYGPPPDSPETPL

Structure (SMILES): O=C(CC(CCn1nnc2ccccc2c1=O)C(=O)O)c1ccc(-c2ccc(Cl)cc2)cc1 (single isomer, unassigned; (+)) [Example 5, (+)-4-(4'-Chloro-biphenyl-4-yl)-4-oxo-2-[2-(4-oxo-4H-benzo[d][1,2,3]triazin-3-yl)-ethyl]-butyricacid]
- reduced the increase in tissue water content (Wistar rats): 38%

Structure (SMILES): CCOc1ccc(-c2ccc(C(=O)[C@H]3CC[C@@H](Sc4ccccc4)[C@@H]3C(=O)O)cc2)cc1 (racemic) [Example 1]
- Ki (MMP-3; read-out: MMP-3 Ki): 20 nM
- Ki (MMP-2): 0.46 nM
- Ki (MMP-9; read-out: MMP-9 Ki): 15 nM
- Ki (MMP-1; read-out: MMP-1 Ki): 3700 nM

Structure (SMILES): CCOc1ccc(-c2ccc(C(=O)CC(CCN3C(=O)c4ccccc4C3=O)C(=O)O)cc2)cc1 (racemic) [Example 3]
- Ki (MMP-3; read-out: MMP-3 Ki): 14 nM
- Ki (MMP-2; read-out: MMP-2 Ki): 1.1 nM
- Ki (MMP-9; read-out: MMP-9 Ki): 0.78 nM
- Ki (MMP-1; read-out: MMP-1 Ki): 3400 nM

Structure (SMILES): O=C(CC(CCn1nnc2ccccc2c1=O)C(=O)O)c1ccc(-c2ccc(Cl)cc2)cc1 (racemic) [Example 6]
- Ki (MMP-3): 6.2 nM
- Ki (MMP-2; read-out: MMP-2 Ki): 1.2 nM
- Ki (MMP-9): 3 nM
- Ki (MMP-1): 2400 nM
